Where two headings read alike, the source gives them in different places. Marks after values point to notes of the source that are not given here.
How the values were obtained:
wild-type virus = details: cited from earlier work
[1] = Population pharmacokinetics of darunavir (Bayesian feedback analysis); details: human, in vivo; for AUC(0-t): read-out: Population pharmacokinetic-derived AUC24h, mean (SD)
[2] = Pharmacokinetic substudy (intensive sampling, non-compartmental analysis); details: steady state, plasma, substudy n = 60, darunavir 800 mg + cobicistat 150 mg once daily plus N[t]RTIs
Procedure: The pharmacokinetic substudy included intensive pharmacokinetic sampling over 24 hours and was performed in a subset of patients (target n =48 evaluable) at selected study sites.
For the whole study population, sparse blood samples for analysis of study drug plasma concentrations were collected over 24 hours at Weeks 2, 4, 8, 12, 16, 24, 36 and 48. For the pharmacokinetic substudy, plasma samples were collected predose, 1, 2, 3, 3.5, 4, 4.5, 5, 6, 8, 10, 12 and 24 hours post-dose at a visit between Weeks 2 and 8.
For the pharmacokinetic substudy, steady-state pharmacokinetic parameters (Cmax, Cmin and AUC24h) were obtained using non-compartmental analysis (WinNonlin® software version 6.2, Pharsight Corporation, Mountain View, CA, USA). The intensive pharmacokinetic substudy data was used to revise an existing 2-compartment population pharmacokinetic model with first-order absorption.

[3] = tested on: HIV-1 protease and reverse transcriptase; assay: Development of resistance (genotype/phenotype testing, PhenoSense GT); details: two patients (one treatment-experienced, one treatment-naïve) receiving emtricitabine
[4] = tested on: plasma HIV-1 RNA (viral load); details: treatment-naïve patients in ARTEMIS, TLOVR, ITT analysis; cited from earlier work
CYP isozymes = details: cited from earlier work
[5] = HIV-1-infected patients; cited from earlier work
HIV = details: cited from earlier work

## CC(C)CN(C[C@@H](O)[C@H](Cc1ccccc1)NC(=O)O[C@H]1CO[C@H]2OCC[C@H]21)S(=O)(=O)c1ccc(N)cc1 [Darunavir, darunavir]
wild-type virus
  protein-binding adjusted 50% effective concentration: 55 ng/mL
[1]; 17 treatment-experienced patients, with cobicistat
  AUC(0-t): 120 µg·h/mL
[1]; 17 treatment-experienced patients, with cobicistat, read-out: Population pharmacokinetic-derived C0h, mean (SD)
  concentration at 0 h: 2920 ng/mL
[1]; 281 treatment-naïve patients, with cobicistat
  AUC(0-t): 101 µg·h/mL
[1]; 281 treatment-naïve patients, with cobicistat, read-out: Population pharmacokinetic-derived C0h, mean (SD)
  concentration at 0 h: 2100 ng/mL
[1]; Week 48, overall n = 298, with cobicistat
  AUC(0-t): 102 µg·h/mL
[1]; Week 48, overall n = 298, with cobicistat, read-out: Population pharmacokinetic-derived trough plasma concentration (C0h), mean (SD)
  concentration at 0 h: 2150 ng/mL
[2]
  Ctau [mean (SD)]: 1311 (969)* ng/ml

## Nc1ccn([C@@H]2CS[C@H](CO)O2)c(=O)n1 [lamivudine]
[3]
  Phenotypic resistance associated with emerging M184V N[t]RTI RAM: associated with phenotypic resistance

## darunavir/ritonavir
[4]
  Week 48 virologic response rate: 84%

## Nc1nc(=O)n([C@@H]2CS[C@H](CO)O2)cc1F [Emtricitabine, emtricitabine]
[3]
  Phenotypic resistance associated with emerging M184V N[t]RTI RAM: associated with phenotypic resistance

## CC(C)c1nc(CN(C)C(=O)N[C@@H](CCN2CCOCC2)C(=O)N[C@H](CC[C@H](Cc2ccccc2)NC(=O)OCc2cncs2)Cc2ccccc2)cs1 [Cobicistat, cobicistat]
CYP isozymes
  Induction of CYP isozymes: does not induce CYP isozymes
[5]
  AUCtau, historical data: 8.3 µg·h/mL
  Cmax, historical data: 1100 ng/mL
HIV
  Antiviral activity: no antiviral activity

Source: PMC4413526 (AIDS Research and Therapy, 2014)
